Assay results taken from article PMC6784069 (Toxins, 2019).
Read-outs that look alike come from different tables or passages of the source. Residues, ends and D or L forms follow the SMILES beside them.

Tests used:
[1] = target: T1, hNaV1.7 (Homo sapiens, UniProt Q15858); test: cell-based; type: cell-based; details: for IC50: hNaV1.7 IC50
[2] = target: T1, hNaV1.7; details: cited from earlier work
[3] = test system: OD1-induced painful behavior of mice; details: mouse, in vivo; cited from earlier work
[4] = target: hCaV1.2 (Homo sapiens, UniProt Q13936); test: cell-based; details: read-out: IC90–95 (compound concentration necessary to inhibit 90–95% of current)

T1 sequence (Q15858 whole entry): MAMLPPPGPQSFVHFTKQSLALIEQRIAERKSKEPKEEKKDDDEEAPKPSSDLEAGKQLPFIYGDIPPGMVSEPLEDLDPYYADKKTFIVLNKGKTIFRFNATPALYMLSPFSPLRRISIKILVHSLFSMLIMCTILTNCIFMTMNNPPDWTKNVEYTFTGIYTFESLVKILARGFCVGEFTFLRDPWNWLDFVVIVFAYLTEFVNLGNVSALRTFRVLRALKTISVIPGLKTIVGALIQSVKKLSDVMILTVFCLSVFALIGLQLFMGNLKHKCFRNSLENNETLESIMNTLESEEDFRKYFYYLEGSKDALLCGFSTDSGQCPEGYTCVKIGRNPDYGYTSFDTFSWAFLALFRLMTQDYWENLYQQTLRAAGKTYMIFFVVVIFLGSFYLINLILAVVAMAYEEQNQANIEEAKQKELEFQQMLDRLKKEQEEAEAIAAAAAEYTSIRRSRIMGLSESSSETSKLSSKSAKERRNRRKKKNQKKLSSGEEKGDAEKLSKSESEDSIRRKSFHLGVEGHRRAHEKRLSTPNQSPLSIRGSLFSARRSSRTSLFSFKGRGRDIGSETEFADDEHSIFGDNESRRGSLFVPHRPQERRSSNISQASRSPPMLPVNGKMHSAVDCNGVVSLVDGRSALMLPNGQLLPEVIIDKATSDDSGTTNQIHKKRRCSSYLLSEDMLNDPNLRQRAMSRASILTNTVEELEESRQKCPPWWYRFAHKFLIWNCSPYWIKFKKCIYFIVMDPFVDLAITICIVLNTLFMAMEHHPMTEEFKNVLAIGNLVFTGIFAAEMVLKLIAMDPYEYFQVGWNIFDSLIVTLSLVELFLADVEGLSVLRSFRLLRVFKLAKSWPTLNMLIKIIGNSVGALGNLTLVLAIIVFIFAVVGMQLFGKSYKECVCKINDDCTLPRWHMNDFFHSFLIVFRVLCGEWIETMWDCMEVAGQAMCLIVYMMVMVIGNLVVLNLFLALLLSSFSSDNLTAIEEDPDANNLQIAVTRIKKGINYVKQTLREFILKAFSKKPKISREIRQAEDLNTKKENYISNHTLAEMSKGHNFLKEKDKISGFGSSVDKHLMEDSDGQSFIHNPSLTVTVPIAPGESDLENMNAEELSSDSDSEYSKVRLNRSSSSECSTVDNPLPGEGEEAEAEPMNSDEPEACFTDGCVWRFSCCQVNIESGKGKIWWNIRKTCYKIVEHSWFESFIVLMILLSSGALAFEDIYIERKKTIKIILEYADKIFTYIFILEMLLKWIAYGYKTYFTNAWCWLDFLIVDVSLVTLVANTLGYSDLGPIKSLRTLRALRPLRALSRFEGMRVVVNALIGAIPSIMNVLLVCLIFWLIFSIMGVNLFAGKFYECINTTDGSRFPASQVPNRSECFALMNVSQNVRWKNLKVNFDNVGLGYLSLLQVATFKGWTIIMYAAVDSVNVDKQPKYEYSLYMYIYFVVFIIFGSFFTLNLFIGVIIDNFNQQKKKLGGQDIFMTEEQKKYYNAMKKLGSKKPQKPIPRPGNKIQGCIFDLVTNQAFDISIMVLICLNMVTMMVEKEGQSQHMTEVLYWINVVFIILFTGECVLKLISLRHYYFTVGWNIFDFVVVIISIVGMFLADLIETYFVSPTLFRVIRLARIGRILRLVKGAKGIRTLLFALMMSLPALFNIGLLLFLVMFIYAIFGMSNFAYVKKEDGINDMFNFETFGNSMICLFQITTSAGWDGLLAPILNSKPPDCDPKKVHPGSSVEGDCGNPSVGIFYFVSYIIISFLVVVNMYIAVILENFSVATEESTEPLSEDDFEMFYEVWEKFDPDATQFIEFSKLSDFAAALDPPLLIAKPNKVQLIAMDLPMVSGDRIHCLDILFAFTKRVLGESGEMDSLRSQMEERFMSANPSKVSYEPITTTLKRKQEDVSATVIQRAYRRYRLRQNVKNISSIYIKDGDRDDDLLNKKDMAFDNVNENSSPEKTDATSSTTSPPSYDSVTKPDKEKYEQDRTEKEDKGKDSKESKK

Molecule	modification of variant affinity for hNaV1.7 relative to wild-type [1]	IC50 ([1]; SD) [nM]	further results
CC(C)C[C@@H]1NC(=O)[C@@H](NC(=O)[C@H](C)N)CSSC[C@@H]2NC(=O)[C@@H]3CSSC[C@@H](C(=O)N[C@@H](CCCNC(=N)N)C(=O)N[C@@H](Cc4ccc(O)cc4)C(=O)N[C@@H](CCCCN)C(=O)N[C@@H](CC(C)C)C(=O)N[C@@H](Cc4ccccc4)C(=O)O)NC(=O)[C@H](Cc4c[nH]c5ccccc45)NC(=O)[C@@H]4CCCN4C(=O)[C@H](Cc4ccc(O)cc4)NC(=O)[C@H](CCCCN)NC(=O)[C@H](Cc4c[nH]c5ccccc45)NC(=O)[C@H](CCC(=O)O)NC(=O)[C@H](CSSC[C@H](NC(=O)[C@H](CO)NC(=O)[C@H](CC(=O)O)NC(=O)[C@H](Cc4c[nH]c5ccccc45)NC(=O)[C@H](CCC(N)=O)NC(=O)CNC1=O)C(=O)N[C@@H](CC(=O)O)C(=O)N1CCC[C@H]1C(=O)N[C@@H](CCCCN)C(=O)N[C@@H](C)C(=O)N[C@@H](CO)C(=O)N[C@@H](C)C(=O)N3)NC(=O)[C@H](C)NC(=O)[C@H](Cc1ccc(O)cc1)NC(=O)[C@H](CC(N)=O)NC(=O)[C@@H]1CCCN1C2=O [K15A] (HELM PEPTIDE1{A.C.L.G.Q.W.D.S.C.D.P.K.A.S.A.C.C.P.N.Y.A.C.E.W.K.Y.P.W.C.R.Y.K.L.F}$PEPTIDE1,PEPTIDE1,2:R3-17:R3|PEPTIDE1,PEPTIDE1,9:R3-22:R3|PEPTIDE1,PEPTIDE1,16:R3-29:R3$$$V2.0)	less than 3 fold	706	–
Pre1a: spider toxin, NaV ligand (CLGWFSRCSPKNDKCCPNYKCSSKDLWCKYKIW)	–	–	IC50 [2]: 114 nM
CC(C)C[C@@H]1NC(=O)[C@@H](NC(=O)[C@H](C)N)CSSC[C@@H]2NC(=O)[C@@H]3CSSC[C@@H](C(=O)N[C@@H](CCCNC(=N)N)C(=O)N[C@@H](Cc4ccc(O)cc4)C(=O)N[C@@H](CCCCN)C(=O)N[C@@H](CC(C)C)C(=O)N[C@@H](Cc4ccccc4)C(=O)O)NC(=O)[C@H](Cc4c[nH]c5ccccc45)NC(=O)[C@@H]4CCCN4C(=O)[C@H](Cc4ccc(O)cc4)NC(=O)[C@H](CCCCN)NC(=O)[C@H](Cc4c[nH]c5ccccc45)NC(=O)[C@H](CCC(=O)O)NC(=O)[C@H](CSSC[C@H](NC(=O)[C@H](CO)NC(=O)[C@H](CC(=O)O)NC(=O)[C@H](Cc4c[nH]c5ccccc45)NC(=O)[C@H](CCC(N)=O)NC(=O)CNC1=O)C(=O)N[C@@H](CC(=O)O)C(=O)N1CCC[C@H]1C(=O)N[C@@H](C)C(=O)N[C@@H](C)C(=O)N[C@@H](CO)C(=O)N[C@@H](CCCCN)C(=O)N3)NC(=O)[C@H](C)NC(=O)[C@H](Cc1ccc(O)cc1)NC(=O)[C@H](CC(N)=O)NC(=O)[C@@H]1CCCN1C2=O [K12A] (HELM PEPTIDE1{A.C.L.G.Q.W.D.S.C.D.P.A.A.S.K.C.C.P.N.Y.A.C.E.W.K.Y.P.W.C.R.Y.K.L.F}$PEPTIDE1,PEPTIDE1,2:R3-17:R3|PEPTIDE1,PEPTIDE1,9:R3-22:R3|PEPTIDE1,PEPTIDE1,16:R3-29:R3$$$V2.0)	less than 3 fold	252	–
CC(C)C[C@@H]1NC(=O)[C@@H](NC(=O)[C@H](C)N)CSSC[C@@H]2NC(=O)[C@@H]3CSSC[C@@H](C(=O)N[C@@H](CCCNC(=N)N)C(=O)N[C@@H](Cc4ccc(O)cc4)C(=O)N[C@@H](CCCCN)C(=O)N[C@@H](CC(C)C)C(=O)N[C@@H](Cc4ccccc4)C(=O)O)NC(=O)[C@H](Cc4c[nH]c5ccccc45)NC(=O)[C@@H]4CCCN4C(=O)[C@H](C)NC(=O)[C@H](CCCCN)NC(=O)[C@H](Cc4c[nH]c5ccccc45)NC(=O)[C@H](CCC(=O)O)NC(=O)[C@H](CSSC[C@H](NC(=O)[C@H](CO)NC(=O)[C@H](CC(=O)O)NC(=O)[C@H](Cc4c[nH]c5ccccc45)NC(=O)[C@H](CCC(N)=O)NC(=O)CNC1=O)C(=O)N[C@@H](CC(=O)O)C(=O)N1CCC[C@H]1C(=O)N[C@@H](CCCCN)C(=O)N[C@@H](C)C(=O)N[C@@H](CO)C(=O)N[C@@H](CCCCN)C(=O)N3)NC(=O)[C@H](C)NC(=O)[C@H](Cc1ccc(O)cc1)NC(=O)[C@H](CC(N)=O)NC(=O)[C@@H]1CCCN1C2=O [Y26A] (HELM PEPTIDE1{A.C.L.G.Q.W.D.S.C.D.P.K.A.S.K.C.C.P.N.Y.A.C.E.W.K.A.P.W.C.R.Y.K.L.F}$PEPTIDE1,PEPTIDE1,2:R3-17:R3|PEPTIDE1,PEPTIDE1,9:R3-22:R3|PEPTIDE1,PEPTIDE1,16:R3-29:R3$$$V2.0)	–	–	IC50 [1]: > 10000 nM
CC(C)C[C@@H]1NC(=O)[C@@H](NC(=O)[C@H](C)N)CSSC[C@@H]2NC(=O)[C@@H]3CSSC[C@@H](C(=O)N[C@@H](CCCNC(=N)N)C(=O)N[C@@H](Cc4ccc(O)cc4)C(=O)N[C@@H](CCCCN)C(=O)N[C@@H](CC(C)C)C(=O)N[C@@H](Cc4ccccc4)C(=O)O)NC(=O)[C@H](Cc4c[nH]c5ccccc45)NC(=O)[C@@H]4CCCN4C(=O)[C@H](Cc4ccc(O)cc4)NC(=O)[C@H](CCCCN)NC(=O)[C@H](Cc4c[nH]c5ccccc45)NC(=O)[C@H](CCC(=O)O)NC(=O)[C@H](CSSC[C@H](NC(=O)[C@H](C)NC(=O)[C@H](CC(=O)O)NC(=O)[C@H](Cc4c[nH]c5ccccc45)NC(=O)[C@H](CCC(N)=O)NC(=O)CNC1=O)C(=O)N[C@@H](CC(=O)O)C(=O)N1CCC[C@H]1C(=O)N[C@@H](CCCCN)C(=O)N[C@@H](C)C(=O)N[C@@H](CO)C(=O)N[C@@H](CCCCN)C(=O)N3)NC(=O)[C@H](C)NC(=O)[C@H](Cc1ccc(O)cc1)NC(=O)[C@H](CC(N)=O)NC(=O)[C@@H]1CCCN1C2=O [S8A] (HELM PEPTIDE1{A.C.L.G.Q.W.D.A.C.D.P.K.A.S.K.C.C.P.N.Y.A.C.E.W.K.Y.P.W.C.R.Y.K.L.F}$PEPTIDE1,PEPTIDE1,2:R3-17:R3|PEPTIDE1,PEPTIDE1,9:R3-22:R3|PEPTIDE1,PEPTIDE1,16:R3-29:R3$$$V2.0)	less than 3 fold	180	–
CcoTx1: spider toxin, NaV ligand (CLGWFKSCDPKNDKCCKNYTCSRRDRWCKYDL)	–	–	concentration efficient to diminish or completely reverse the OD1-induced manifestations of pain [3]: 1 µM; IC50 [2]: 2 to 130 nM
[Cl][Cd][Cl] [Cadmium (chloride), reference compound]	–	–	IC90 [4]: 200000 nM
CC(C)C[C@@H]1NC(=O)[C@@H](NC(=O)[C@H](C)N)CSSC[C@@H]2NC(=O)[C@@H]3CSSC[C@@H](C(=O)N[C@@H](CCCNC(=N)N)C(=O)N[C@@H](Cc4ccc(O)cc4)C(=O)N[C@@H](CCCCN)C(=O)N[C@@H](CC(C)C)C(=O)N[C@@H](Cc4ccccc4)C(=O)O)NC(=O)[C@H](Cc4c[nH]c5ccccc45)NC(=O)[C@@H]4CCCN4C(=O)[C@H](Cc4ccc(O)cc4)NC(=O)[C@H](CCCCN)NC(=O)[C@H](C)NC(=O)[C@H](CCC(=O)O)NC(=O)[C@H](CSSC[C@H](NC(=O)[C@H](CO)NC(=O)[C@H](CC(=O)O)NC(=O)[C@H](Cc4c[nH]c5ccccc45)NC(=O)[C@H](CCC(N)=O)NC(=O)CNC1=O)C(=O)N[C@@H](CC(=O)O)C(=O)N1CCC[C@H]1C(=O)N[C@@H](CCCCN)C(=O)N[C@@H](C)C(=O)N[C@@H](CO)C(=O)N[C@@H](CCCCN)C(=O)N3)NC(=O)[C@H](C)NC(=O)[C@H](Cc1ccc(O)cc1)NC(=O)[C@H](CC(N)=O)NC(=O)[C@@H]1CCCN1C2=O [W24A] (HELM PEPTIDE1{A.C.L.G.Q.W.D.S.C.D.P.K.A.S.K.C.C.P.N.Y.A.C.E.A.K.Y.P.W.C.R.Y.K.L.F}$PEPTIDE1,PEPTIDE1,2:R3-17:R3|PEPTIDE1,PEPTIDE1,9:R3-22:R3|PEPTIDE1,PEPTIDE1,16:R3-29:R3$$$V2.0)	–	–	IC50 [1]: > 10000 nM
CC(C)C[C@@H]1NC(=O)[C@@H](NC(=O)[C@@H]2CCC(=O)N2)CSSC[C@@H]2NC(=O)[C@@H]3CSSC[C@@H](C(=O)N[C@@H](CCCNC(=N)N)C(=O)N[C@@H](Cc4ccc(O)cc4)C(=O)N[C@@H](CCCCN)C(=O)N[C@@H](CC(C)C)C(=O)N[C@@H](Cc4ccccc4)C(=O)O)NC(=O)[C@H](Cc4c[nH]c5ccccc45)NC(=O)[C@@H]4CCCN4C(=O)[C@H](Cc4ccc(O)cc4)NC(=O)[C@H](CCCCN)NC(=O)[C@H](Cc4c[nH]c5ccccc45)NC(=O)[C@H](CCC(=O)O)NC(=O)[C@H](CSSC[C@H](NC(=O)[C@H](CO)NC(=O)[C@H](CC(=O)O)NC(=O)[C@H](Cc4c[nH]c5ccccc45)NC(=O)[C@H](CCC(N)=O)NC(=O)CNC1=O)C(=O)N[C@@H](CC(=O)O)C(=O)N1CCC[C@H]1C(=O)N[C@@H](CCCCN)C(=O)N[C@@H](C)C(=O)N[C@@H](CO)C(=O)N[C@@H](CCCCN)C(=O)N3)NC(=O)[C@H](C)NC(=O)[C@H](Cc1ccc(O)cc1)NC(=O)[C@H](CC(N)=O)NC(=O)[C@@H]1CCCN1C2=O [A1Z] (HELM PEPTIDE1{[Glp].C.L.G.Q.W.D.S.C.D.P.K.A.S.K.C.C.P.N.Y.A.C.E.W.K.Y.P.W.C.R.Y.K.L.F}$PEPTIDE1,PEPTIDE1,2:R3-17:R3|PEPTIDE1,PEPTIDE1,9:R3-22:R3|PEPTIDE1,PEPTIDE1,16:R3-29:R3$$$V2.0)	less than 3 fold	172	–
COC(=O)C1=C(C)NC(C)=C(C(=O)OC)C1c1ccccc1[N+](=O)[O-] [Nifedipine, reference compound]	–	–	IC90 ([4]; CHO): 10000 nM
CC(C)C[C@@H]1NC(=O)[C@@H](NC(=O)[C@H](C)N)CSSC[C@@H]2NC(=O)[C@@H]3CSSC[C@@H](C(=O)N[C@@H](CCCNC(=N)N)C(=O)N[C@@H](Cc4ccc(O)cc4)C(=O)N[C@@H](CCCCN)C(=O)N[C@@H](CC(C)C)C(=O)N[C@@H](Cc4ccccc4)C(=O)O)NC(=O)[C@H](Cc4c[nH]c5ccccc45)NC(=O)[C@@H]4CCCN4C(=O)[C@H](Cc4ccc(O)cc4)NC(=O)[C@H](C)NC(=O)[C@H](Cc4c[nH]c5ccccc45)NC(=O)[C@H](CCC(=O)O)NC(=O)[C@H](CSSC[C@H](NC(=O)[C@H](CO)NC(=O)[C@H](CC(=O)O)NC(=O)[C@H](Cc4c[nH]c5ccccc45)NC(=O)[C@H](CCC(N)=O)NC(=O)CNC1=O)C(=O)N[C@@H](CC(=O)O)C(=O)N1CCC[C@H]1C(=O)N[C@@H](CCCCN)C(=O)N[C@@H](C)C(=O)N[C@@H](CO)C(=O)N[C@@H](CCCCN)C(=O)N3)NC(=O)[C@H](C)NC(=O)[C@H](Cc1ccc(O)cc1)NC(=O)[C@H](CC(N)=O)NC(=O)[C@@H]1CCCN1C2=O [K25A] (HELM PEPTIDE1{A.C.L.G.Q.W.D.S.C.D.P.K.A.S.K.C.C.P.N.Y.A.C.E.W.A.Y.P.W.C.R.Y.K.L.F}$PEPTIDE1,PEPTIDE1,2:R3-17:R3|PEPTIDE1,PEPTIDE1,9:R3-22:R3|PEPTIDE1,PEPTIDE1,16:R3-29:R3$$$V2.0)	–	–	IC50 [1]: > 10000 nM
